Where only a bound is given, the exact number is not on record here.

Here are results for 8 compounds from PMC3152598 (Biochemical pharmacology, 2011).

The target in assay [1] is T1, human A3 AR (Homo sapiens, UniProt P0DMS8).
T1 sequence (P0DMS8 1-318): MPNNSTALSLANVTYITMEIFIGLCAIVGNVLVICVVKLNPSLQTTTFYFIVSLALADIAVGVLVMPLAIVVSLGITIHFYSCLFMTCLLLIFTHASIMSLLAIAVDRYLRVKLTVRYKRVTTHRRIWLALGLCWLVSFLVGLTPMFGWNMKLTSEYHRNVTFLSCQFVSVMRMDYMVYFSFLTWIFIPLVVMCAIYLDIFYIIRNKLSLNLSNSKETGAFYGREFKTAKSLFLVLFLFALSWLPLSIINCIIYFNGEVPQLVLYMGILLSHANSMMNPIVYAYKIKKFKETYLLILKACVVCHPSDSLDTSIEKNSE
Description: Cyclic AMP accumulation assay.

Assay [2] deals with T1, human A3 AR. Description: Membrane hyperpolarization. The following applies: for Emax: CHO, read-out: hyperpolarization Emax; for agonist activity in membrane hyperpolarization assay, in words: agonist alone.
Assay [3] has as its target T1, human A3 AR. Kind of assay: cell-based. To be noted: CHO, read-out: β-arrestin2 Emax.
The target in assay [4] is T1, human A3 AR. Kind of assay: cell-based. The following applies: CHO, read-out: Ca2+ Emax.
The target in assay [5] is T1, human A3 AR. To be noted: LUF6000 10 μM.
The test system of assay [6] is other subtypes of ARs. The following applies: concentrations up to 10 μM; cited from earlier work.
Assay [7] deals with T1, human A3 AR. The following applies: no agonist.
Assay [8] addresses T1, human A3 AR. To be noted: agonist Cl-IB-MECA; LUF6000 1, 3, and 10 μM.

Turning to `CNC(=O)[C@H]1O[C@@H](n2cnc3c(NCc4cccc(I)c4)nc(Cl)nc32)[C@H](O)[C@@H]1O` [Cl-IB-MECA, 2-chloro-N^6-(3-iodobenzyl)adenosine-5′-N-methyluronamide], the Emax in assay [1] (CHO, read-out: cyclic AMP Emax) worked out at 95.8 ± 4.8%; in assay [2], 58.3 ± 3.6%; in assay [3], 104 ± 5%; in assay [4] it was 55.2 ± 3.4%.
On to `OC[C@H]1O[C@@H](n2cnc3c(NCc4cccc(I)c4)nc(Cl)nc32)[C@H](O)[C@@H]1O` [MRS542, 2-chloro-N^6-(3-iodobenzyl)adenosine], for which the Emax is -3.8 ± 5.6% in assay [2], 41.1 ± 3.2% in assay [3] and 7.5 ± 2.5% in assay [4]. In addition, the “agonist activity in membrane hyperpolarization assay, in words” value (from here on “agonist activity”) in assay [2] is “did not show any agonist activity”.
In the case of `O=c1[nH]cnc2c1ncn2[C@@H]1O[C@H](CO)[C@@H](O)[C@H]1O` [inosine], the “agonist activity” value in assay [2] is “did not show any significant activation”.
For the compound `OC[C@H]1O[C@@H](n2cnc3c(NCc4cccc(I)c4)ncnc32)[C@H](O)[C@@H]1O` [MRS541, N^6-(3-iodobenzyl)adenosine], the “agonist activity” value in assay [2] is listed as “did not show any significant activation”.
In the case of `Clc1ccc(Nc2nc3ccccc3c3[nH]cnc23)cc1Cl` [LUF6001, N-(3,4-dichloro-phenyl)-1H-imidazo[4,5-c]quinolin-4-amine], in assay [1] (agonist Cl-IB-MECA), the “effect on agonist action (efficacy and potency), in words” value is “slightly decreased both the efficacy and potency”.
In the case of `Nc1ncnc2c1ncn2[C@@H]1O[C@H](CO)[C@@H](O)[C@H]1O` [adenosine], the “agonist activity” value in assay [2] is on record as “equally efficacious as NECA”.
`Clc1ccc(Nc2nc3ccccc3c3[nH]c(C4CCCCC4)nc23)cc1Cl` [LUF6000, N-(3,4-dichloro-phenyl)-2-cyclohexyl-1H-imidazo[4,5-c]quinolin-4-amine]: in assay [1] (agonist Cl-IB-MECA), the “concentration at which the efficacy-enhancing effect reaches a maximum” value was “approx. 10 μM” and the “concentration from which the efficacy-enhancing effect starts” value is at most 1 µM. Moreover, the “relative enhancement of the efficacy of Cl-IB-MECA” value in assay [1] (agonist Cl-IB-MECA, LUF6000 10 μM) came to 50%. Further, the “further enhancement at higher concentration” value in assay [1] (agonist Cl-IB-MECA, LUF6000 30 μM, data not shown) is “did not cause further enhancement”. For the same compound, the “effect on agonist potency” value in assay [1] (agonist Cl-IB-MECA, modulator 10 μM or lower) is on record as “did not significantly affect”. Also, in assay [1] (agonist NECA, LUF6000 10 μM), the “maximum enhancement of the efficacy of NECA” value is “about 16%”. Also, in assay [1] (agonist inosine, LUF6000 10 μM), the “efficacy of inosine in presence of LUF6000, % of the level of NECA” value came out at 85%. The “effect on the inability of MRS1220 and MRS1191 to inhibit forskolin-stimulated cyclic AMP levels” value in assay [1] (nonnucleoside A3 AR antagonists MRS1220 and MRS1191, data not shown) is reported as “did not show any effect”. Besides, the “effect on the efficacy of CCPA” value in assay [1] (nucleoside antagonist CCPA) is reported as “no effect”. The “effect on the efficacy of MRS542” value in assay [1] (nucleoside antagonist MRS542) is “no effect”. The “efficacy of LUF5833, % of the control level (agonist alone)” value in assay [1] (partial agonist LUF5833, LUF6000 10 μM) is “over 200%”. Moreover, the “efficacy of MRS541, % of the control level (agonist alone)” value in assay [1] (partial agonist MRS541, LUF6000 10 μM) was “over 200%”. In addition, the “further increase of the efficacy of Cl-IB-MECA at higher concentration” value in assay [2] (agonist Cl-IB-MECA, LUF6000 30 μM) is “did not induce a further increase”. Also, the “effect on the efficacy of adenosine” value in assay [2] (agonist adenosine, data not shown) is “did not show any effect”. Besides, the “enhancement of the residual activity of inosine, MRS541 and LUF5833” value in assay [2] (ligands inosine, MRS541, LUF5833) was “did not show any enhancement”. Besides, the “effect of modulator alone on membrane hyperpolarization” value in assay [2] (no agonist) is listed as “did not show any effect”. Further, in assay [5] (agonist Cl-IB-MECA), the “enhancement of the effect of Cl-IB-MECA” value is given as “less than 10%”. For the same compound, the “enhancement of the effect of NECA” value in assay [5] (agonist NECA) is listed as “less than 10%”. For the same compound, the “enhancement of the efficacy of MRS542” value in assay [5] (partial agonist MRS542) was “about 40%”. Moreover, the “binding at the other subtypes of ARs” value in assay [6] is given as “did not bind appreciably”. Also, in assay [7], the “effect of modulator alone on intracellular calcium mobilization” value is “had no effect”. For the same compound, the “effect on the efficacy of Cl-IB-MECA in inducing ERK1/2 activation” value in assay [8] is “had no effect”.
With `Clc1ccc(Nc2nc3ccccc3c3[nH]c(C4CCC4)nc23)cc1Cl` [LUF5999, N-(3,4-dichloro-phenyl)-2-cyclobutyl-1H-imidazo[4,5-c]quinolin-4-amine], the “effect on agonist action (efficacy and potency), in words” value in assay [1] (agonist Cl-IB-MECA) is on record as “concentration-dependently increasing efficacy while decreasing potency”.

What is called Emax is the greatest response seen or fitted, relative to the assay's reference.
